Here are results for two molecules from US12213970B2, “Pyridinyl sulfonamide derivatives, pharmaceutical compositions and uses thereof” (Boehringer Ingelheim International GmbH, priority 2018, dated 2025).

Each structure is given as a SMILES string. Where a name gives a salt, the structure may show the parent alone. Read-outs that look alike come from different tables or passages of the source.

One assay addresses T1, AOC2 (Homo sapiens, UniProt O75106).
T1 construct: host or cells: HEK293 cells (transient transfection), cell homogenate
T1 sequence (O75106 1-756): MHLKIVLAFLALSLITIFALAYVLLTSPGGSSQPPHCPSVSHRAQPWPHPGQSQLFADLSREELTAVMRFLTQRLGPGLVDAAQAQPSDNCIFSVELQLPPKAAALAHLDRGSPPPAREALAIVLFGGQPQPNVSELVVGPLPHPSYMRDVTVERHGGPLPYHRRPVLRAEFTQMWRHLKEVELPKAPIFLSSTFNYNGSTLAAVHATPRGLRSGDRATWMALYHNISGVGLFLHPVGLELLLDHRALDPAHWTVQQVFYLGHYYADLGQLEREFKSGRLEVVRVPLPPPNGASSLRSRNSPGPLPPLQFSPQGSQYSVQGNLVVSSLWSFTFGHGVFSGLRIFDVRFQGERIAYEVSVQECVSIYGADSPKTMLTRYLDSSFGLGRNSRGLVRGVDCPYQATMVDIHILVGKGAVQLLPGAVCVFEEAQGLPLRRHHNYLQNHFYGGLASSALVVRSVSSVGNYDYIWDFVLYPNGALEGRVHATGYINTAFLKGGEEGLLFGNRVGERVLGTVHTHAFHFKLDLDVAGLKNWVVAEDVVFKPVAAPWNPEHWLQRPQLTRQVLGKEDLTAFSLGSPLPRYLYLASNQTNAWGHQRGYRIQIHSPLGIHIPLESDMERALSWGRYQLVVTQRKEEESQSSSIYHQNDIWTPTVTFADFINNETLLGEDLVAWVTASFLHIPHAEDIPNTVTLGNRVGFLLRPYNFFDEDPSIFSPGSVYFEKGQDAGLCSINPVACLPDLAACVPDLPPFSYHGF
Nature of the assay: AOC2 biochemical assay (Amplex Red). Conditions: for IC50: read-out: IC50 AOC2. The protocol:
The Amplex® Red Assay (commercially available from Thermo Fisher Scientific) provides a sensitive method for the detection of H2O2 generated during enzymatic reactions like the amine oxidation catalyzed by AOC2. […] An aliquot of 5 μL of the compound dilution is added to a 96 well plate (flat bottom F, black, GREINER bio-one, #655900) in a DMSO concentration of 2%. […] Cells are cultured for 3 days in EMEM culture medium containing 10% FCS (#04-00-1A, Biological Industries). After washing twice with ice cold PBS, cells are lysed by mechanic homogenation and cleared supernatants are shock frozen in liquid nitrogen and stored at -80° C. For the determination of AOC2 enzymatic activity cell lysates are thawed on ice and 1:1 diluted with reaction buffer. An Aliquot of 45 μL is added to the compound dilution and incubated for 30 min at 37° C. The enzymatic reaction is started with the addition of 50 μL of Amplex® Red reaction mix (final assay concentration: 100 mM sodiumphosphate, 120 μM Amplex® Red reagent (#A22177 Molecular Probes), 1.5 U/mL Horseradish Peroxidase (#P8375 Sigma-Aldrich), 2 mM phenylethylamine (#[…] Sigma-Aldrich), 0.05% Pluronic F-127 (#P3000MP Sigma-Aldrich), pH 7.4, 37° C.). The turnover per time of the substrate is determined directly with a fluorescence reader (Ex 540 nm/Em 590 nm) like Envision 2104 Multilabel Reader (PERKIN ELMER) for 60 min. (cf. Anal Biochem (1997) 253:169-174; Anal Biochem (1997) 253:162-168)

For the next assay, the target named is T2, AOC1 (Homo sapiens, UniProt P19801).
T2 construct: purchased R&D Systems 8297-AO-010
T2 sequence (P19801 20-751): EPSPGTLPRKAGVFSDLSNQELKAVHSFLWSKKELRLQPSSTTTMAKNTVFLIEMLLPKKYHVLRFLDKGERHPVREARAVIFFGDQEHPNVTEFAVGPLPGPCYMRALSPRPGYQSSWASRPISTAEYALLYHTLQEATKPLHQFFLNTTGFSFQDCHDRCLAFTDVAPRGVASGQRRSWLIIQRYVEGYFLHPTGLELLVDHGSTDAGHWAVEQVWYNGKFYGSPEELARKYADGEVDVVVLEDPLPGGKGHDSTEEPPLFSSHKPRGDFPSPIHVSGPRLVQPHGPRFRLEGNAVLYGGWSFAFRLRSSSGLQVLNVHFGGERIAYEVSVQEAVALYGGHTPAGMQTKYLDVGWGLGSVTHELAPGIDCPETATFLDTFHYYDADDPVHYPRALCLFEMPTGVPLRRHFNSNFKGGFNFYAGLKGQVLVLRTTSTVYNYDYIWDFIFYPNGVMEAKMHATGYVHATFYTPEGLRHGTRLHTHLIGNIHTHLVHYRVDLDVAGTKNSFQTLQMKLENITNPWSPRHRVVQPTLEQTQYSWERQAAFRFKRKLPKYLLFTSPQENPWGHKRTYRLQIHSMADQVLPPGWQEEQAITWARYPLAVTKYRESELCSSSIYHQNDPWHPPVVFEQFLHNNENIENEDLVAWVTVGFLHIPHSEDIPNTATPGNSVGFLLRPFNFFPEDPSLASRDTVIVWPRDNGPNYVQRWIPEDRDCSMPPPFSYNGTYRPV
Nature of the assay: AOC1 biochemical assay (Amplex Red). Conditions: for IC50: read-out: IC50 AOC1. The protocol:
The Amplex® Red Assay (available from Thermo Fisher Scientific) provides a sensitive method for the detection of H2O2 generated during enzymatic reactions like the amine oxidation catalyzed by AOC1. The assay reagent is a colorless substrate (N-acetyl-3,7-dihydroxyphenoxazine) that reacts in a 1:1 stoichiometry with hydrogen peroxide (H2O2) to produce the fluorescent dye resorufin (7-hydroxyphenoxazin-3-one, excitation/emission maxima=570/585 nm).
An aliquot of 3 μL of the compound dilution is added to a 384 well plate (Optiplate, PS, flat bottom F, black, PERKIN ELMER, #6007270) in a DMSO concentration of 6.6%.
An AOC1 enzyme aliquot (#8297-AO-010, R&D Systems) is thawed on ice, diluted in reaction buffer and added in a volume of 7 μL to the wells to give a final assay concentration of 1 ng/well. After incubation of inhibitor and enzyme for 30 minutes at 37° C., the enzymatic reaction is started with the addition of 10 μL of Amplex® Red reaction mix (final assay concentration: 100 mM sodiumphosphate, 120 μM Amplex® Red reagent (#A22177 Molecular Probes), 1.5 U/mL Horseradish Peroxidase (#P8375 Sigma-Aldrich), 200 μM putrescine (#P7505 Sigma-Alrdich), 0.05% Pluronic F-127 (#P3000MP Sigma-Aldrich), pH 7.4, 37° C.).
After an incubation for 30 minutes at 37° C. the turnover of the substrate is determined directly (or after the addition of an excess of an amine-oxidase inhibitor) with a fluorescence reader (Ex 540 nm/Em 590 nm) like Envision 2104 Multilabel Reader (PERKIN ELMER).

As to `CN(C)S(=O)(=O)c1ccc(OC/C(=C\F)CN)cc1` [Compound 10 of WO 2013/163675, reference compound], the “ratio IC50 AOC2/IC50 AOC3 (fold less active against AOC2 as compared to AOC3)” value on AOC2 (AOC2 versus AOC3) is listed as “ca. 270 fold”. Further, the half-inhibitory concentration (IC50) was 538 nM on AOC2 and 963 nM at AOC1 (comparison table).
In the case of `NC/C(=C/F)COc1ccc(S(=O)(=O)N2CC[C@H](O)C2)cn1` [Example 43, (S)-1-[6-(Z)-2-Aminomethyl-3-fluoro-allyloxy]-pyridine-3-sulfonyl]-pyrrolidin-3-ol trifluoroacetate], the IC50 on AOC2 came to 210 nM; on AOC1, 964 nM. Moreover, the “factor less active on AOC1 than the comparison compound” value on AOC1 (versus the Z isomer of example 6 of WO 2018/027892) was found to be 14.

One may read the IC50 as the point on the concentration scale where inhibition reaches its midpoint.
